Experiments:
KB = assay: Cytotoxicity against KB cell line; type: functional, cell-based; conditions: Homo sapiens
[1] = Therapeutic index, ratio of cytotoxicity/antiplasmodial activity; type: cell-based; conditions: human, KB cells; read-out: Ratio IC50
[2] = system: Trypanosoma brucei rhodesiense; assay: Antitrypanosomal activity against Trypanosoma brucei rhodesiense STIB900; type: functional, organism-based
Leishmania donovani = assay: Antiprotozoal activity against Leishmania donovani; type: functional, organism-based
[3] = Therapeutic index (cytotoxicity/antitrypanosomal activity); type: cell-based; conditions: human, KB cells; read-out: Ratio IC50
Plasmodium falciparum = assay: Antiplasmodial activity against Plasmodium falciparum 3D7; type: functional, organism-based
[4] = Therapeutic index (cytotoxicity/antiprotozoal activity); type: cell-based; conditions: human, KB cells; read-out: Ratio IC50

IC50 [2]	IC50 (Leishmania donovani)	IC50 (Plasmodium falciparum)	SMILES	IC50 (KB)	selectivity ratio [1]	selectivity ratio [3]	selectivity ratio [4]
1.04 µM	5.54 µM	9.56 µM	CC(C)(CN1CN(C(Cc2ccccc2)C(=O)O)CSC1=S)CN1CN(C(Cc2ccccc2)C(=O)O)CSC1=S (stereo unspecified)	2.21 µM	0.2	2.1	0.4
5.34 µM	19.5 µM	39.5 µM	NC(=O)CC(C(=O)O)N1CSC(=S)N(CCCCCCN2CN(C(CC(N)=O)C(=O)O)CSC2=S)C1 (stereo unspecified)	> 51.7 µM	> 2	> 10	> 30
2.88 µM	6.85 µM	3.76 µM	CC(C)(CN1CN(CC(=O)O)CSC1=S)CN1CN(CC(=O)O)CSC1=S	5.09 µM	1.3	1.7	0.7
2.48 µM	7.27 µM	9.04 µM	CC(C)(CN1CN(CCCCC(=O)O)CSC1=S)CN1CN(CCCCC(=O)O)CSC1=S	8.16 µM	0.9	3.4	1.1
0.36 µM	6.47 µM	16.9 µM	O=C(O)CCCCN1CSC(=S)N(CCCCCCN2CN(CCCCC(=O)O)CSC2=S)C1	16.1 µM	1	44.4	2.4
0.73 µM	5.42 µM	9.13 µM	O=C(O)C(Cc1ccccc1)N1CSC(=S)N(CCCCCCN2CN(C(Cc3ccccc3)C(=O)O)CSC2=S)C1 (stereo unspecified)	5.73 µM	0.6	7.9	1.1
2.3 µM	7.26 µM	14.2 µM	CSCCC(C(=O)O)N1CSC(=S)N(CCCCCCN2CN(C(CCSC)C(=O)O)CSC2=S)C1 (stereo unspecified)	52.5 µM	3.7	41.2	7.3
9.37 µM	> 49 µM	11 µM	NC(=O)CCC(C(=O)O)N1CSC(=S)N(CCCCCCN2CN(C(CCC(N)=O)C(=O)O)CSC2=S)C1 (stereo unspecified)	52 µM	4.7	5.8	–
3.6 µM	30.2 µM	23.2 µM	O=C(O)CC(C(=O)O)N1CSC(=S)N(CCCCCCN2CN(C(CC(=O)O)C(=O)O)CSC2=S)C1 (stereo unspecified)	76.3 µM	0.9	–	–
0.56 µM	2.18 µM	13.1 µM	O=C(O)CCN1CSC(=S)N(CCCCCCN2CN(CCC(=O)O)CSC2=S)C1	12.3 µM	0.9	21.8	5.6
4.27 µM	24.3 µM	43.3 µM	O=C(O)CCCN1CSC(=S)N(CCCCCCN2CN(CCCC(=O)O)CSC2=S)C1	11.7 µM	2	–	–
0.011 µM	–	–	N=C(N)c1ccc(OCCCCCOc2ccc(C(=N)N)cc2)cc1 [PENTAMIDINE]	–	–	–	–
0.73 µM	7.07 µM	11 µM	O=C(O)CN1CSC(=S)N(CCCCCCN2CN(CC(=O)O)CSC2=S)C1	8.33 µM	0.8	11.4	1.2
–	–	–	COc1cc([C@@H]2c3cc4c(cc3[C@H](O)[C@H]3COC(=O)[C@H]23)OCO4)cc(OC)c1OC [PODOFILOX]	0.0036 µM	–	–	–

From ChEMBL document CHEMBL1139001, “Alkyl-linked bis-THTT derivatives as potent in vitro trypanocidal agents” (Bioorg Med Chem Lett, 2006)
